Read-outs that look alike come from different tables or passages of the source.
Test system: Phospho-ERK in NCI-H358 cells expressing KRas G12C
Experiment: Cellular inhibition of KRas G12C by Phospho-ERK measurement in NCI-H358 cells
Format: cell-based
Conditions: Homo sapiens, read-out: IC50 (pERK(Thr202/Tyr204) normalized with GAPDH)
Experimental: The cellular inhibition of KRAs G12C by exemplary compounds of the present invention was determined by measuring the amount of a downstream marker of KRas activity, phosphorylated ERK (“Phospho-ERK”).
NCI-H358 cells (ATCC CRL-5807) express KRas G12C and were grown in RPMI medium supplemented with 10% fetal bovine serum, penicillin/streptomycin and 10 mM HEPES. Cells were plated in poly-D-Lysine coated 96-well plates at a concentration of 50,000 cells/well and allowed to attach for 8-12 hours. Diluted compounds were then added at a final concentration of 0.5% DMSO. After 3 hours, the medium was removed, 150 μL of 4% formaldehyde was added and the plates were incubated for 20 minutes. The plates were washed with PBS, and permeabilized using 150 μL of ice cold 100% methanol for 10 minutes. Non-specific antibody binding to the plates was blocked using 100 μL Licor Blocking Buffer (Li-Cor Biotechnology, Lincoln Nebr.) for 1 hour at room temperature. Positive control samples and samples lacking cells were parallel processed with test samples as standards.
The amount Phospho-ERK was determined using an antibody specific for the phosphorylated form of ERK and compared to the amount of GAPDH. Primary antibodies used for detection were added as follows: Phospho-ERK (Cell Signaling cs9101) diluted 1:500 and GAPDH (Millipore MAB374) diluted 1:5000 in Licor block+0.05% Tween 20. The plates were incubated for 2 hours at room temperature. The plates were washed with PBS+0.05% Tween 20.
Secondary antibodies used to visualize primary antibodies were added as follows: Anti-rabbit-680 diluted 1:1000 and Anti-mouse-800 diluted 1:1000 in Licor Block+0.050 Tween 20 and incubated for 1 hour at room temperature. The plates were washed with PBS+0.05% o Tween 20. A100 L aliquot of PBS was added to each well and the plates were read on a LICOR AERIUS plate reader.
The pERK(Thr202/Tyr204) signal was normalized with the GAPDH signal and percent of DMSO control values were calculated. IC50 values were generated using a 4 parameter fit of the dose response curve. Key: “A”≥0.001-≤1 μM; “B”[…] and ND=not determined.

[1] = NCI-H358 cells, 3 hours compound treatment

Structure (SMILES) | IC50 (NCI-H358, 3 h) | IC50 [1]
C=CC(=O)N1CCN(c2nc(OC[C@@H]3CCCN3C)nc3c2CCN(c2cc(O)cc4ccccc24)C3)CC1 [Example 127, (S)-1-(4-(7-(3-hydroxynaphthalen-1-yl)-2-((1-methylpyrrolidin-2-yl)methoxy)-5,6,7,8-tetrahydropyrido[3,4-d]pyrimidin-4-yl)piperazin-1-yl)prop-2-en-1-one] | 1 to 1000 nM | –
C=CC(=O)N1CCN(c2nc(O[C@H](C)[C@H]3CCCN3C)nc3c2CCN(c2cc(O)cc4ccccc24)C3)CC1 [Example 129, 1-[4-[7-(3-hydroxy-1-naphthyl)-2-[(1R)-1-[(2R)-1-methylpyrrolidin-2-yl]ethoxy]-6,8-dihydro-5H-pyrido[3,4-d]pyrimidin-4-yl]piperazin-1-yl]prop-2-en-1-one] | – | 1 to 1000 nM
C=CC(=O)N1CCN(c2nc(O[C@@H](C)[C@@H]3CCCN3C)nc3c2CCN(c2cc(O)cc4ccccc24)C3)CC1 [Example 130, 1-(4-(7-(3-hydroxynaphthalen-1-yl)-2-((S)-1-((S)-1-methylpyrrolidin-2-yl)ethoxy)-5,6,7,8-tetrahydropyrido[3,4-d]pyrimidin-4-yl)piperazin-1-yl)prop-2-en-1-one] | – | 1 to 1000 nM
C=CC(=O)N1CCN(c2nc(OCC3CCN(C4CCCCC4)C3)nc3c2CCN(c2cc(O)cc4ccccc24)C3)CC1 (stereo not shown) [Example 132, 1-[4-[2-[(1-cyclohexylpyrrolidin-3-yl)methoxy]-7-(3-hydroxy-1-naphthyl)-6,8-dihydro-5H-pyrido[3,4-d]pyrimidin-4-yl]piperazin-1-yl]prop-2-en-1-one] | – | 1 to 1000 nM
C=CC(=O)N1CCN(c2nc(OCCCN3CCN(C(C)=O)CC3)nc3c2CCN(c2cc(O)cc4ccccc24)C3)CC1 [Example 135, 1-[4-[2-[3-(4-acetylpiperazin-1-yl)propoxy]-7-(3-hydroxy-1-naphthyl)-6,8-dihydro-5H-pyrido[3,4-d]pyrimidin-4-yl]piperazin-1-yl]prop-2-en-1-one] | – | 1 to 1000 nM
C=CC(=O)N1CCN(c2nc(OC[C@@H]3CCCN3CCOC)nc3c2CCN(c2cc(O)cc4ccccc24)C3)CC1 [Example 144, (S)-1-(4-(7-(3-hydroxynaphthalen-1-yl)-2-((1-(2-methoxyethyl)pyrrolidin-2-yl)methoxy)-5,6,7,8-tetrahydropyrido[3,4-d]pyrimidin-4-yl)piperazin-1-yl)prop-2-en-1-one] | – | 1 to 1000 nM
C=CC(=O)N1CCN(c2nc(OC[C@@H]3CCCN3C(C)C)nc3c2CCN(c2cc(O)cc4ccccc24)C3)CC1 [Example 145, 1-[4-[7-(3-hydroxy-1-naphthyl)-2-[[(2S)-1-isopropylpyrrolidin-2-yl]methoxy]-6,8-dihydro-5H-pyrido[3,4-d]pyrimidin-4-yl]piperazin-1-yl]prop-2-en-1-one] | – | 1 to 1000 nM
C=CC(=O)N1CCN(c2nc(O[C@H](C)CN(C)C)nc3c2CCN(c2cc(O)cc4ccccc24)C3)CC1CC#N (stereo partly drawn) [Example 150, 2-(1-acryloyl-4-(2-(((R)-1-(dimethylamino)propan-2-yl)oxy)-7-(3-hydroxynaphthalen-1-yl)-5,6,7,8-tetrahydropyrido[3,4-d]pyrimidin-4-yl)piperazin-2-yl)acetonitrile] | – | 1 to 1000 nM
C=CC(=O)N1CCN(c2nc(O[C@H](C)CN(C)C)nc3c2CCN(c2c(C)ccc4[nH]ncc24)C3)CC1CC#N (stereo partly drawn) [Example 152, 2-[4-[2-[(1R)-2-(dimethylamino)-1-methyl-ethoxy]-7-(5-methyl-1H-indazol-4-yl)-6,8-dihydro-5H-pyrido[3,4-d]pyrimidin-4-yl]-1-prop-2-enoyl-piperazin-2-yl]acetonitrile] | – | 1 to 1000 nM
C=CC(=O)N1CCN(c2nc(OCCCN3C[C@@H]4C[C@H]3CO4)nc3c2CCN(c2cc(O)cc4ccccc24)C3)CC1CC#N (stereo partly drawn) [Example 153, 2-[4-[7-(3-hydroxy-1-naphthyl)-2-[3-[(1S,4S)-2-oxa-5-azabicyclo[2.2.1]heptan-5-yl]propoxy]-6,8-dihydro-5H-pyrido[3,4-d]pyrimidin-4-yl]-1-prop-2-enoyl-piperazin-2-yl]acetonitrile] | – | 1 to 1000 nM
C=CC(=O)N1CCN(c2nc(OCCCN3C[C@@H]4C[C@H]3CO4)nc3c2CCN(c2cccc4ccccc24)C3)CC1CC#N (stereo partly drawn) [Example 154, 2-[4-[7-(1-naphthyl)-2-[3-[(1S,4S)-2-oxa-5-azabicyclo[2.2.1]heptan-5-yl]propoxy]-6,8-dihydro-5H-pyrido[3,4-d]pyrimidin-4-yl]-1-prop-2-enoyl-piperazin-2-yl]acetonitrile] | – | 1 to 1000 nM
C=CC(=O)N1CCN(c2nc(OC[C@@H]3CCCN3C)nc3c2CCN(c2c(C(F)(F)F)ccc4[nH]ncc24)C3)CC1 [Example 156, (S)-1-(4-(2-((1-methylpyrrolidin-2-yl)methoxy)-7-(5-(trifluoromethyl)-1H-indazol-4-yl)-5,6,7,8-tetrahydropyrido[3,4-d]pyrimidin-4-yl)piperazin-1-yl)prop-2-en-1-one] | – | 1 to 1000 nM
C=CC(=O)N1CCN(c2nc(OC[C@@H]3CCCN3C)nc3c2CCN(c2cc(O)cc4ccccc24)C3)C(CO)C1 (stereo partly drawn) [Example 169, 1-[3-(hydroxymethyl)-4-[7-(3-hydroxy-1-naphthyl)-2-[[(2S)-1-methylpyrrolidin-2-yl]methoxy]-6,8-dihydro-5H-pyrido[3,4-d]pyrimidin-4-yl]piperazin-1-yl]prop-2-en-1-one] | – | 1 to 1000 nM
C=CC(=O)N1CCN(c2nc(OCCN(C)C)nc3c2CCN(c2cc(O)cc4ccccc24)C3)C[C@@H]1CC#N [Example 176, 2-[(2S)-4-[2-[2-(dimethylamino)ethoxy]-7-(3-hydroxy-1-naphthyl)-6,8-dihydro-5H-pyrido[3,4-d]pyrimidin-4-yl]-1-prop-2-enoyl-piperazin-2-yl]acetonitrile] | – | 1 to 1000 nM
C=CC(=O)N1CCN(c2nc(OC[C@H]3CCCN3C)nc3c2CCN(c2cc(O)cc4ccccc24)C3)CC1CC#N (stereo partly drawn) [Example 178, 2-[4-[7-(3-hydroxy-1-naphthyl)-2-[[(2R)-1-methylpyrrolidin-2-yl]methoxy]-6,8-dihydro-5H-pyrido[3,4-d]pyrimidin-4-yl]-1-prop-2-enoyl-piperazin-2-yl]acetonitrile] | – | 1 to 1000 nM
C=CC(=O)N1CCN(c2nc(OC[C@@H]3CCN(C)C3)nc3c2CCN(c2cc(O)cc4ccccc24)C3)CC1CC#N (stereo partly drawn) [Example 179, 2-[4-[7-(3-hydroxy-1-naphthyl)-2-[[(3R)-1-methylpyrrolidin-3-yl]methoxy]-6,8-dihydro-5H-pyrido[3,4-d]pyrimidin-4-yl]-1-prop-2-enoyl-piperazin-2-yl]acetonitrile] | – | 1 to 1000 nM
C=CC(=O)N1CCN(c2nc(OC[C@H]3CCCN3C)nc3c2CCN(c2cc(O)cc4ccccc24)C3)CC1 [Example 187, (R)-1-(4-(7-(3-hydroxynaphthalen-1-yl)-2-((1-methylpyrrolidin-2-yl)methoxy)-5,6,7,8-tetrahydropyrido[3,4-d]pyrimidin-4-yl)piperazin-1-yl)prop-2-en-1-one] | 1 to 1000 nM | –
C=CC(=O)N1CCN(c2nc(OC[C@H]3CCN(C)C3)nc3c2CCN(c2cc(O)cc4ccccc24)C3)CC1 [Example 188, (S)-1-(4-(7-(3-hydroxynaphthalen-1-yl)-2-((1-methylpyrrolidin-3-yl)methoxy)-5,6,7,8-tetrahydropyrido[3,4-d]pyrimidin-4-yl)piperazin-1-yl)prop-2-en-1-one] | 1 to 1000 nM | –
C=CC(=O)N1CCN(c2nc(OCC3CCN(C4CC4)C3)nc3c2CCN(c2cc(O)cc4ccccc24)C3)CC1 (stereo not shown) [Example 190, 1-(4-(2-((1-cyclopropylpyrrolidin-3-yl)methoxy)-7-(3-hydroxynaphthalen-1-yl)-5,6,7,8-tetrahydropyrido[3,4-d]pyrimidin-4-yl)piperazin-1-yl)prop-2-en-1-one] | – | 1 to 1000 nM
C=CC(=O)N1CCN(c2nc(OC[C@@H]3CCCN(C)C3)nc3c2CCN(c2cc(O)cc4ccccc24)C3)CC1 [Example 192, (R)-1-(4-(7-(3-hydroxynaphthalen-1-yl)-2-((1-methylpiperidin-3-yl)methoxy)-5,6,7,8-tetrahydropyrido[3,4-d]pyrimidin-4-yl)piperazin-1-yl)prop-2-en-1-one] | – | 1 to 1000 nM
C=CC(=O)N1CCN(c2nc(OCC3CN(C)CCO3)nc3c2CCN(c2cc(O)cc4ccccc24)C3)CC1 (stereo not shown) [Example 193, 1-(4-(7-(3-hydroxynaphthalen-1-yl)-2-((4-methylmorpholin-2-yl)methoxy)-5,6,7,8-tetrahydropyrido[3,4-d]pyrimidin-4-yl)piperazin-1-yl)prop-2-en-1-one] | – | 1 to 1000 nM
C=CC(=O)N1CCN(c2nc(OC[C@@H]3CCCCN3C)nc3c2CCN(c2cc(O)cc4ccccc24)C3)CC1 [Example 196, (S)-1-(4-(7-(3-hydroxynaphthalen-1-yl)-2-((1-methylpiperidin-2-yl)methoxy)-5,6,7,8-tetrahydropyrido[3,4-d]pyrimidin-4-yl)piperazin-1-yl)prop-2-en-1-one] | – | 1 to 1000 nM

— patent US11267812B2 (Mirati Therapeutics, Inc., priority 2016, dated 2022)
